In assay [1] the test system is Mycobacterium tuberculosis. Briefly: Photodynamic antibacterial activity against multidrug resistant Mycobacterium tuberculosis assessed as reduction in bacterial burden at 10 ug/ml preincubated for 2 hrs in dark followed by light irradiation at 50 J/cm2 for 500 secs. In kind it is functional.
The subject of assay [2] is Mycobacterium tuberculosis. The assay is described as follows: Photodynamic antibacterial activity against extensively drug resistant Mycobacterium tuberculosis assessed as reduction in bacterial burden at 10 ug/ml preincubated for 2 hrs in dark followed by light irradiation at 50 J/cm2 for 500 secs. In kind it is functional.

The text below walks through data of ChEMBL document CHEMBL4346724, “Porphyrinoid photosensitizers mediated photodynamic inactivation against bacteria” (Eur J Med Chem, 2019).

Regarding `C=Cc1c(C)c2cc3nc(c(C=O)c4[nH]c(cc5nc(cc1[nH]2)C(C)=C5C)c(C)c4C(=O)O)[C@@H](CCC(=O)O)[C@@H]3C`, the “log(activity)” value is reported as 3.1 in assay [1] and 2.8 in assay [2].
